Molecules are shown by their SMILES.

Results on 29 molecules are retold here after patent US20230416248A1, “COMPOUNDS AND USES THEREOF” (Foghorn Therapeutics Inc., priority 2020, published 2023).

The target of test [1] is T1, BRM (Homo sapiens, UniProt P51531).
T1 construct: made in house; host or cells: High Five insect cells
Put plainly: ATPase catalytic activity of BRM, ADP-Glo in vitro biochemical assay. The conditions noted are these: for IC50: ADP-Glo ATPase assay, 30 nM BRM, 400 μM ATP; for Ratio*: ratio BRG1 IC50 / BRM IC50. Put shortly: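 Recombinant BRM (30 nM) hydrolysed 400 μM ATP with 20 nM salmon sperm DNA in pH 8 Tris buffer containing 20 mM MgCl2, 50 mM NaCl, 0.1% Tween-20 and 1 mM DTT, 1 h at room temperature. ADP formed was quantified by ADP-Glo luminescence.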
(In general: ADP-Glo turns the ADP formed in a reaction into a luminescent signal.)

The target of test [2] is T2, BRG-1 (Homo sapiens, UniProt P51532).
T2 construct: made in house; host or cells: High Five insect cells
T2 sequence (P51532 whole entry): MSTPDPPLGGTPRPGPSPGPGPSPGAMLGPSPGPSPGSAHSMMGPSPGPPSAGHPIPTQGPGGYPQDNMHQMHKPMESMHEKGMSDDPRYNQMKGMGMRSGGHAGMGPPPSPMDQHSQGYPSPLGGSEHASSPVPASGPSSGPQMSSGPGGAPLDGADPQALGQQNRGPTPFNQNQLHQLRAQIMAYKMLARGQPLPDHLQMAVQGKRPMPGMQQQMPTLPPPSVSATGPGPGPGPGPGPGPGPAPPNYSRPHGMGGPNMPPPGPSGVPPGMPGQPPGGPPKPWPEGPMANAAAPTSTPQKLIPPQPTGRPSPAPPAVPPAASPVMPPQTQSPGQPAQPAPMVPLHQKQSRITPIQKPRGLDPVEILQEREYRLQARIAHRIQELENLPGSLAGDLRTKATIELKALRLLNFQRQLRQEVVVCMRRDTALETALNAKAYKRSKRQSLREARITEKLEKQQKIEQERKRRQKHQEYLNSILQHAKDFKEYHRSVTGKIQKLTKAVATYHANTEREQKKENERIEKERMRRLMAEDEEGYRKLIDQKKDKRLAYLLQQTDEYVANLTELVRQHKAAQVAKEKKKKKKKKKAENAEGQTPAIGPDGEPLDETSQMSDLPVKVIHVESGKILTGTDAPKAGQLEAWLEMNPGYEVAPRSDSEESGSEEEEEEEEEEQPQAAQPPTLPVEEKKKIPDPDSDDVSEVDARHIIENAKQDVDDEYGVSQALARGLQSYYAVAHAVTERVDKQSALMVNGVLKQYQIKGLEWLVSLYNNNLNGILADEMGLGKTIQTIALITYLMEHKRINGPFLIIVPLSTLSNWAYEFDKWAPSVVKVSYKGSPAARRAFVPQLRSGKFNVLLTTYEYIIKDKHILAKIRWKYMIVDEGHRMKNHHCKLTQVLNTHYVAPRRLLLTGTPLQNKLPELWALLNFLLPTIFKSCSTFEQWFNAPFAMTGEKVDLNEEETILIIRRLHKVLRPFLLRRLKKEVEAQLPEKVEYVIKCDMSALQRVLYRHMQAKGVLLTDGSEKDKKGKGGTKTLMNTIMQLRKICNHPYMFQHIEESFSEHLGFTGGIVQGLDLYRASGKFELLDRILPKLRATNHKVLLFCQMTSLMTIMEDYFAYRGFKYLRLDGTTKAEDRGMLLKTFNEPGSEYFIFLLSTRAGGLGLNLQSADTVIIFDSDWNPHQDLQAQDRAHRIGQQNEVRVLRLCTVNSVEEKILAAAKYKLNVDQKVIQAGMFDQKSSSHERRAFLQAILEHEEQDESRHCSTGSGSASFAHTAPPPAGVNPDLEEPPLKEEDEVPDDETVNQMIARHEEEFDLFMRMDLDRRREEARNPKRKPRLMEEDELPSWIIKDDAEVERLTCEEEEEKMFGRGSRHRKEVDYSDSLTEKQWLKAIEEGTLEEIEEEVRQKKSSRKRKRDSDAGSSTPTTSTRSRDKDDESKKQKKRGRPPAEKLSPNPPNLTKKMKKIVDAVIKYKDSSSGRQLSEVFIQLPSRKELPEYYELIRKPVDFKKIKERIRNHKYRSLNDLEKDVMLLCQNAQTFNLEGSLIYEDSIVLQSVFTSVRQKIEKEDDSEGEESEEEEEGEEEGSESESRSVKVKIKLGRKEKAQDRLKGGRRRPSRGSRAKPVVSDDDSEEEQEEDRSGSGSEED
Put plainly: ATPase catalytic activity of BRG-1, ADP-Glo in vitro biochemical assay. The conditions noted are these: ADP-Glo ATPase assay, 30 nM BRG-1, 400 μM ATP; read-out: BRG1 IC50. The method, boiled down:
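Signal reflects ADP produced by the enzyme, quantified as luminescence after unused ATP is cleared and ADP is reconverted to ATP for the luciferase reaction; both steps run at room temperature, 40 and 60 min respectively.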

T1 sequence (P51531 whole entry): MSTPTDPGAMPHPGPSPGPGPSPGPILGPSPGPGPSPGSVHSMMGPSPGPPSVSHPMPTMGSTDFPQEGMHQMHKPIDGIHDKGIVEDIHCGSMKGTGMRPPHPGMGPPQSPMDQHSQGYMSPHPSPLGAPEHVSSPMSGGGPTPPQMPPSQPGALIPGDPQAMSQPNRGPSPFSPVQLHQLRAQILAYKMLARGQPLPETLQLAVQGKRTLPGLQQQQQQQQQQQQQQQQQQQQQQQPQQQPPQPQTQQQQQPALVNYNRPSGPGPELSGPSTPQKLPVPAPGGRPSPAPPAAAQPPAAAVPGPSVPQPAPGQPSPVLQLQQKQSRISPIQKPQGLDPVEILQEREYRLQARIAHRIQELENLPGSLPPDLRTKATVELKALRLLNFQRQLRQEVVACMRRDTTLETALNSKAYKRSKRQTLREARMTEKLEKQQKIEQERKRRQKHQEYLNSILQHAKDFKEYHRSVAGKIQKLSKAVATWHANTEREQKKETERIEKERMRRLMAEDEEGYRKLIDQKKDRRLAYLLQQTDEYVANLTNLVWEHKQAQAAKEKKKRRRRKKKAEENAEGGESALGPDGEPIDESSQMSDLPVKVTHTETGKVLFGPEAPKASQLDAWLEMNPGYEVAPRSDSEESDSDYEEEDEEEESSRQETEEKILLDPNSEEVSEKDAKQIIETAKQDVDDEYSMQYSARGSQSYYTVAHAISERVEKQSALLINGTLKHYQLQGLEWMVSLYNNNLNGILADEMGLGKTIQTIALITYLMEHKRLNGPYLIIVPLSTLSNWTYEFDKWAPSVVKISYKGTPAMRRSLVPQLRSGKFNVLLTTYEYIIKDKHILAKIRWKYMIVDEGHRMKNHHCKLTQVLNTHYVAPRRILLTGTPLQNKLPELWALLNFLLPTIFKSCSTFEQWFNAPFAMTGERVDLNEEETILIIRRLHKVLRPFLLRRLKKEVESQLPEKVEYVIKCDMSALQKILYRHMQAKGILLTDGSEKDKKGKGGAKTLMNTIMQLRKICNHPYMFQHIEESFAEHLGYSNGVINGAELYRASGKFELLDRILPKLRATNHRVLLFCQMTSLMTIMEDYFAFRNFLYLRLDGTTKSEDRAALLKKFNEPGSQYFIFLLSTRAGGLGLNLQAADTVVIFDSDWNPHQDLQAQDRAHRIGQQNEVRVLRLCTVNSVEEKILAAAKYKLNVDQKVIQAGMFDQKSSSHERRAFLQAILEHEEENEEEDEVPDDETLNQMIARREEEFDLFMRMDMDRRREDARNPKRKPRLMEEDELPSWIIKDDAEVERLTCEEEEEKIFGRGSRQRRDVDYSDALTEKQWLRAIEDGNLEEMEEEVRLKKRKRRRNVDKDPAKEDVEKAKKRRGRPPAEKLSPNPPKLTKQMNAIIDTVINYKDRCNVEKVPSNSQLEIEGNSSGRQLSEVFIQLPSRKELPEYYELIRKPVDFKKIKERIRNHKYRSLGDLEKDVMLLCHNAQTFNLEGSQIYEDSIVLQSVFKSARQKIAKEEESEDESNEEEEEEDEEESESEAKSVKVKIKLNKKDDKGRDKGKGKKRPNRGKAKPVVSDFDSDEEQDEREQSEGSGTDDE

For the molecule `O=C(NCc1cc2nc(N3CCCc4c(N5CCC5)ccnc43)ccc2cn1)c1ccc2c(c1)S(=O)(=O)CCOC2` [Compound 814], in test [1], half-maximal inhibition (IC50) required 21.4 nM and the “Ratio*” value amounted to 10.40. The half-inhibitory concentration (IC50) (usually the concentration at which inhibition is half-maximal) in test [2] amounted to 222 nM.

On to `O=C(NCc1cc2nc(-c3ccccc3OCC3CC3)ccc2cn1)c1ccc2c(c1)S(=O)(=O)CCOC2` [Compound 815], for which, in test [1], the 50% inhibitory concentration (IC50) turned out to be 193 nM and the “Ratio*” value came to 7.51. Besides, in test [2], the IC50 amounted to 1450 nM.

Consider `COCc1cc(C)c2c(n1)N(c1ccc3cnc(CNC(=O)c4ccc5c(c4)S(=O)(=O)CCOC5)cc3n1)CCC2` [Compound 816], for which, in test [1], inhibition was half-maximal at 42.3 nM (IC50) and the “Ratio*” value came out at 18.04. For the same molecule, the 50% inhibitory concentration (IC50) in test [2] was 764 nM.

As to `CN(c1cnc2c(c1)OCCN2c1ccc2cnc(CNC(=O)c3ccc4c(c3)S(=O)(=O)CCOC4)cc2n1)C1CC(F)(F)C1` [Compound 817], the IC50 in test [1] is 12.4 nM; in test [2], 143 nM. In addition, the “Ratio*” value in test [1] turned out to be 11.55.

As to `[2H]C1([2H])Oc2ccc(C(=O)NCc3cc4nc(N5CCOc6ccc(C(F)F)nc65)ccc4cn3)cc2S(=O)(=O)C([2H])([2H])C1([2H])[2H]` [Compound 818], in test [1], the IC50 turned out to be 62.4 nM and the “Ratio*” value is 26.90. For the same molecule, the IC50 in test [2] stood at 1680 nM.

With `CN(c1cnc2c(c1)OCCN2c1ccc2cnc(CNC(=O)c3ccc4c(c3)S(=O)(=O)CCOC4)cc2n1)C1CCC1` [Compound 819], in test [1], it took 6.4 nM to reach half-maximal inhibition (IC50) and the “Ratio*” value was determined as 7.26. Further, in test [2], the IC50 turned out to be 46.7 nM.

On to `O=C(NCc1cc2nc(-c3cccc(OCC4CC4)c3)ccc2cn1)c1ccc2c(c1)S(=O)(=O)CCOC2` [Compound 820], for which, in test [1], the IC50 came out at 96.1 nM and the “Ratio*” value turned out to be 14.31. Further, the IC50 in test [2] amounted to 1380 nM.

Consider `COCc1cc2c(cn1)N(c1ccc3cnc(CNC(=O)c4ccc5c(c4)S(=O)(=O)CCOC5)cc3n1)CCC2` [Compound 821], for which, in test [1], the half-maximal inhibitory concentration (IC50) came to 79.7 nM and the “Ratio*” value is recorded as 12.03. Further, the IC50 in test [2] was 959 nM.

Take `O=C(NCc1cc2cc(N3CCOc4cnc(C5CC5)nc43)ccc2cn1)c1ccc2c(c1)S(=O)(=O)CCOC2` [Compound 822]: in test [1], inhibition was half-maximal at 36.7 nM (IC50) and the “Ratio*” value is given as 12.47. The IC50 in test [2] came out at 458 nM.

`O=C(NCc1cc2nc(N3CCCc4ccc(C(F)CF)nc43)ccc2cn1)c1ccc2c(c1)S(=O)(=O)CCOC2` (stereo not drawn) [Compound 823]: in test [1], 61.3 nM corresponded to half-maximal inhibition (IC50) and the “Ratio*” value came to 17.84. Besides, the IC50 in test [2] came to 1090 nM.

As for `Cc1ccc(-c2ccc3cnc(CNC(=O)c4ccc5c(c4)S(=O)(=O)CCOC5)cc3n2)c(=O)n1C` [Compound 824], in test [1], the IC50 came to 742 nM and the “Ratio*” value is recorded as 6.49. In addition, the half-maximal inhibitory concentration (IC50) in test [2] stood at 4820 nM.

Turning to `COc1ncc(F)c2c1CCCN2c1ccc2cnc(CNC(=O)c3ccc4c(c3)S(=O)(=O)CCOC4)cc2n1` [Compound 825], in test [1], the IC50 came to 31.9 nM and the “Ratio*” value was determined as 7.70. Besides, the IC50 in test [2] is 246 nM.

Turning to `O=C(NCc1cc2nc(N3CCOc4c3ncc(C3CC3)c4F)ccc2cn1)c1ccc2c(c1)S(=O)(=O)CCOC2` [Compound 827], in test [1], half-maximal inhibition (IC50) was put at 13.1 nM and the “Ratio*” value was found to be 11.63. Also, the IC50 in test [2] came to 153 nM.

`O=C(NCc1cc2nc(N3CCOc4ccc(C5CC(F)(F)C5)nc43)ccc2cn1)c1ccc2c(c1)S(=O)(=O)CCOC2` [Compound 828]: the IC50 in test [1] came to 45.1 nM; in test [2], 2370 nM. The “Ratio*” value in test [1] stood at 52.48.

With `C[C@H]1C[C@H]1c1ccc2c(n1)N(c1ccc3cnc(CNC(=O)c4ccc5c(c4)S(=O)(=O)CCOC5)cc3n1)CCO2` [Compound 831], the figures for the IC50 in test [1] and in test [2] were 35.2 nM and 1160 nM, respectively. Moreover, the “Ratio*” value in test [1] amounted to 33.09.

Regarding `C[C@@H]1C[C@@H]1c1ccc2c(n1)N(c1ccc3cnc(CNC(=O)c4ccc5c(c4)S(=O)(=O)CCOC5)cc3n1)CCO2` [Compound 832], in test [1], the IC50 was determined as 15.5 nM and the “Ratio*” value was 58.26. The IC50 in test [2] worked out at 906 nM.

In the case of `O=C(NCc1cc2nc(N3CCOc4cc(N5CCC5)ncc43)ccc2cn1)c1ccc2c(c1)S(=O)(=O)CCOC2` [Compound 834], in test [1], the IC50 stood at 20.2 nM and the “Ratio*” value turned out to be 14.40. Also, in test [2], the IC50 amounted to 291 nM.

As for `COCc1cc2c(nc1C(F)F)N(c1ccc3cnc(CNC(=O)c4ccc5c(c4)S(=O)(=O)CCOC5)cc3n1)CCC2` [Compound 835], in test [1], it took 17.1 nM to reach half-maximal inhibition (IC50) and the “Ratio*” value is 9.15. Further, the IC50 in test [2] turned out to be 156 nM.

Regarding `CN(C)c1nccc2c1CCCN2c1ccc2cnc(CNC(=O)c3ccc4c(c3)S(=O)(=O)CCOC4)cc2n1` [Compound 836], in test [1], the IC50 was 105 nM and the “Ratio*” value is listed as 6.21. Moreover, the IC50 in test [2] stood at 651 nM.

As to `CN(C)c1ccnc2c1CCCN2c1ccc2cnc(CNC(=O)c3ccc4c(c3)S(=O)(=O)CCOC4)cc2n1` [Compound 837], in test [1], the IC50 is 33 nM and the “Ratio*” value worked out at 4.95. Moreover, the IC50 in test [2] was 163 nM.

`O=C(NCc1cc2nc(N3CCOc4ccc(C(F)CF)nc43)ccc2cn1)c1ccc2c(c1)S(=O)(=O)CCOC2` (stereo not drawn) [Compound 838]: in test [1], the IC50 was 27.5 nM and the “Ratio*” value is 38.76. The IC50 in test [2] amounted to 1060 nM.

Regarding `Cc1nc(C)c2c(n1)N(c1ccc3cnc(CNC(=O)c4ccc5c(c4)S(=O)(=O)CCOC5)cc3n1)CCC2` [Compound 841], in test [1], the concentration for half-maximal inhibition (IC50) was 290 nM and the “Ratio*” value is recorded as 7.16. In addition, in test [2], the IC50 was 2080 nM.

For `O=C(NCc1cc2nc(N3CC(F)Cc4cccnc43)ccc2cn1)c1ccc2c(c1)S(=O)(=O)CCOC2` (stereo not drawn) [Compound 842], in test [1], 29.9 nM corresponded to half-maximal inhibition (IC50) and the “Ratio*” value is 10.98. For the same molecule, the IC50 in test [2] is 329 nM.

On to `O=C(NCc1cc2nc(N3CCOc4nc(C5CC5)ccc43)ccc2cn1)c1ccc2c(c1)S(=O)(=O)CCOC2` [Compound 843], for which, in test [1], the concentration for half-maximal inhibition (IC50) came out at 56.2 nM and the “Ratio*” value stood at 8.61. Besides, the IC50 in test [2] stood at 484 nM.

As to `O=C(NCc1cc2nc(N3CCOc4cc(C5CC5)ccc43)cnc2cn1)c1ccc2c(c1)S(=O)(=O)CCOC2` [Compound 844], in test [1], the midpoint of inhibition, the IC50, lay at 19 nM and the “Ratio*” value is listed as 19.99. The IC50 in test [2] was 380 nM.

Turning to `CN(C)c1ccc2c(n1)OCCN2c1ccc2cnc(CNC(=O)c3ccc4c(c3)S(=O)(=O)CCOC4)cc2n1` [Compound 845], the values for the IC50 in test [1] and in test [2] were 21.2 nM and 184 nM, respectively. For the same molecule, in test [1], the “Ratio*” value is 8.66.

Turning to `O=C(NCc1cc2nc(N3CCOc4nc(C(F)F)ccc43)ccc2cn1)c1ccc2c(c1)S(=O)(=O)CCOC2` [Compound 846], the concentration for half-maximal inhibition (IC50) in test [1] was 406 nM; in test [2], 4570 nM. Further, in test [1], the “Ratio*” value was 11.26.

With `O=C(NCc1cc2nc(N3CCOc4cc(C5(C(F)F)CC5)cnc43)ccc2cn1)c1ccc2c(c1)S(=O)(=O)CCOC2` [Compound 847], in test [1], it took 19.4 nM to reach half-maximal inhibition (IC50) and the “Ratio*” value turned out to be 19.41. The IC50 in test [2] worked out at 376 nM.

Consider `Cc1ncnc2c1CCCN2c1ccc2cnc(CNC(=O)c3ccc4c(c3)S(=O)(=O)CCOC4)cc2n1` [Compound 848], for which, in test [1], the IC50 was 216 nM and the “Ratio*” value was found to be 10.10. Further, the IC50 in test [2] amounted to 2180 nM.
